Measured values reported in patent US20170209445A1, “KINASE INHIBITORS” (Respivert Limited, priority 2014, published 2017).

These compounds were tested on PBMCs (assay: LPS-induced IL-8 release in PBMC cells). Details: Homo sapiens, LPS-stimulated PBMCs, read-out: IC50 Values for Inhibition of Cytokine Release PBMCs IL-8.
Assay type: cell-based
Protocol: Peripheral blood mononuclear cells (PBMCs) from healthy subjects are separated from whole blood using a density gradient (Lymphoprep, Axis-Shield Healthcare). The PBMCs are seeded in 96 well plates and treated with compounds at the desired concentration for 2 hours before addition of 1 ng/mL LPS (Escherichia Coli 0111:B4 from Sigma Aldrich) for 24 hours under normal tissue culture conditions (37° C., 5% CO2). The supernatant is harvested for determination of IL-8 and TNFα concentrations by sandwich ELISA (Duo-set, R&D systems) and read on the fluorescence microplate reader (Varioskan® Flash, ThermoFisher Scientific).

| SMILES | IC50 |
| --- | --- |
| COc1c(NC(=O)c2ccc(C)c(-c3ccc4nc(Nc5cccc(OS(C)(=O)=O)c5)ncc4c3)c2)cc(C(C)(C)C)cc1NS(C)(=O)=O [14(a), 3-((6-(5-((5-(tert-Butyl)-2-methoxy-3-(methylsulfonamido)phenyl)carbamoyl)-2-methylphenyl)quinazolin-2-yl)amino)phenyl methanesulfonate] | 31.1 nM |
| COc1cc(Nc2ncc3cc(-c4cc(C(=O)Nc5cc(C(C)(C)C)cc(NS(C)(=O)=O)c5OC)ccc4C)ccc3n2)ccc1C(=O)NCCC1CCN(C)CC1 [14(aa), 4-((6-(5-((5-(tert-Butyl)-2-methoxy-3-(methylsulfonamido)phenyl)carbamoyl)-2-methyl-phenyl)quinazolin-2-yl)amino)-2-methoxy-N-(2-(1-methylpiperidin-4-yl)ethyl)benzamide] | 9.5 nM |
| COc1cc(Nc2ncc3cc(-c4cc(C(=O)Nc5cc(C(C)(C)C)cc(NS(C)(=O)=O)c5OC)ccc4C)ccc3n2)ccc1C(=O)NCCCN1CCCOCC1 [14(ab), N-(3-(1,4-Oxazepan-4-yl)propyl)-4-((6-(5-((5-(tert-butyl)-2-methoxy-3-(methyl-sulfonamido)phenyl)carbamoyl)-2-methylphenyl)quinazolin-2-yl)amino)-2-methoxybenzamide] | 5.4 nM |
| COc1cc(Nc2ncc3cc(-c4cc(C(=O)Nc5cc(C(C)(C)C)cc(NS(C)(=O)=O)c5OC)ccc4C)ccc3n2)ccc1C(=O)NC1CCN(C)CC1 [14(ac), 4-((6-(5-((5-(tert-Butyl)-2-methoxy-3-(methylsulfonamido)phenyl)carbamoyl)-2-methylphenyl)quinazolin-2-yl)amino)-2-methoxy-N-(1-methylpiperidin-4-yl)benzamide] | 5.1 nM |
| COc1cc(Nc2ncc3cc(-c4cc(C(=O)Nc5cc(C(C)(C)C)cc(NS(C)(=O)=O)c5OC)ccc4C)ccc3n2)ccc1C(=O)NCCS(C)(=O)=O [14(ad), 4-((6-(5-((5-(tert-Butyl)-2-methoxy-3-(methylsulfonamido)phenyl)carbamoyl)-2-methylphenyl)quinazolin-2-yl)amino)-2-methoxy-N-(2-(methylsulfonyl)ethyl)benzamide] | 7 nM |
| COc1cc(Nc2ncc3cc(-c4cc(C(=O)Nc5cc(C(C)(C)C)cc(NS(C)(=O)=O)c5OC)ccc4C)ccc3n2)ccc1C(=O)NCCn1ccnc1C [14(ae), 4-((6-(5-((5-(tert-Butyl)-2-methoxy-3-(methylsulfonamido)phenyl)carbamoyl)-2-methyl-phenyl)quinazolin-2-yl)amino)-2-methoxy-N-(2-(2-methyl-1H-imidazol-1-yl)ethyl)benzamide] | 6.5 nM |
| COc1cc(Nc2ncc3cc(-c4cc(C(=O)Nc5cc(C(C)(C)C)cc(NS(C)(=O)=O)c5OC)ccc4C)ccc3n2)ccc1C(=O)NCCc1c[nH]cn1 [14(af), N-(2-(1H-Imidazol-4-yl)ethyl)-4-((6-(5-((5-(tert-butyl)-2-methoxy-3-(methylsulfonamido)-phenyl)carbamoyl)-2-methylphenyl)quinazolin-2-yl)amino)-2-methoxybenzamide] | 13.2 nM |
| COc1cc(Nc2ncc3cc(-c4cc(C(=O)Nc5cc(C(C)(C)C)cc(NS(C)(=O)=O)c5OC)ccc4C)ccc3n2)ccc1C(=O)NCCc1cccnc1 [14(ag), 4-((6-(5-((5-(tert-Butyl)-2-methoxy-3-(methylsulfonamido)phenyl)carbamoyl)-2-methylphenyl)quinazolin-2-yl)amino)-2-methoxy-N-(2-(pyridin-3-yl)ethyl)benzamide] | 11.6 nM |
| COc1cc(Nc2ncc3cc(-c4cc(C(=O)Nc5cc(C(C)(C)C)cc(NS(C)(=O)=O)c5OC)ccc4C)ccc3n2)ccc1C(=O)NCCN1CCC(O)CC1 [14(ah), 4-((6-(5-((5-(tert-Butyl)-2-methoxy-3-(methylsulfonamido)phenyl)carbamoyl)-2-methylphenyl)quinazolin-2-yl)amino)-N-(2-(4-hydroxypiperidin-1-yl)ethyl)-2-methoxybenzamide] | 8 nM |
| COc1cc(Nc2ncc3cc(-c4cc(C(=O)Nc5cc(C(C)(C)C)cc(NS(C)(=O)=O)c5OC)ccc4C)ccc3n2)ccc1C(=O)NCC1CCN(C)CC1 [14(ai), 4-((6-(5-((5-(tert-Butyl)-2-methoxy-3-(methylsulfonamido)phenyl)carbamoyl)-2-methylphenyl)quinazolin-2-yl)amino)-2-methoxy-N-((1-methylpiperidin-4-yl)methyl)benzamide] | 7.9 nM |
| COc1cc(Nc2ncc3cc(-c4cc(C(=O)Nc5cc(C(C)(C)C)cc(NS(C)(=O)=O)c5OC)ccc4C)ccc3n2)ccc1C(=O)NCCC1(O)CCN(C)CC1 [14(aj), 4-((6-(5-((5-(tert-Butyl)-2-methoxy-3-(methylsulfonamido)phenyl)carbamoyl)-2-methylphenyl)quinazolin-2-yl)amino)-N-(2-(4-hydroxy-1-methylpiperidin-4-yl)ethyl)-2-methoxybenzamide] | 9.3 nM |
| COc1cc(Nc2ncc3cc(-c4cc(C(=O)Nc5cc(C(C)(C)C)cc(NS(C)(=O)=O)c5OC)ccc4C)ccc3n2)ccc1C(=O)NCCN1CCCC1 [14(ak), 4-((6-(5-((5-(tert-Butyl)-2-methoxy-3-(methylsulfonamido)phenyl)carbamoyl)-2-methylphenyl)quinazolin-2-yl)amino)-2-methoxy-N-(2-(pyrrolidin-1-yl)ethyl)benzamide] | 14.8 nM |
| COc1cc(Nc2ncc3cc(-c4cc(C(=O)Nc5cc(C(C)(C)C)cc(NS(C)(=O)=O)c5OC)ccc4C)ccc3n2)ccc1C(=O)NCCN1CCN(C)C(C)(C)C1 [14(al), 4-((6-(5-((5-(tert-Butyl)-2-methoxy-3-(methylsulfonamido)phenyl)carbamoyl)-2-methyl-phenyl)quinazolin-2-yl)amino)-2-methoxy-N-(2-(3,3,4-trimethylpiperazin-1-yl)ethyl)benzamide] | 8.3 nM |
| COc1cc(Nc2ncc3cc(-c4cc(C(=O)Nc5cc(C(C)(C)C)cc(NS(C)(=O)=O)c5OC)ccc4C)ccc3n2)ccc1C(=O)NCCN1CCOCC1 [14(am), 4-((6-(5-((5-(tert-Butyl)-2-methoxy-3-(methylsulfonamido)phenyl)carbamoyl)-2-methylphenyl)quinazolin-2-yl)amino)-2-methoxy-N-(2-morpholinoethyl)benzamide] | 19.5 nM |
| COc1cc(Nc2ncc3cc(-c4cc(C(=O)Nc5cc(C(C)(C)C)cc(NS(C)(=O)=O)c5OC)ccc4C)ccc3n2)ccc1C(=O)NC1CCS(=O)(=O)CC1 [14(an), 4-((6-(5-((5-(tert-Butyl)-2-methoxy-3-(methylsulfonamido)phenyl)carbamoyl)-2-methylphenyl)quinazolin-2-yl)amino)-N-(1,1-dioxidotetrahydro-2H-thiopyran-4-yl)-2-methoxybenzamide] | 12.3 nM |
| COc1c(NC(=O)c2ccc(C)c(-c3ccc4nc(Nc5cc(C#N)cc(OCCN6CCOCC6)c5)ncc4c3)c2)cc(C(C)(C)C)cc1NS(C)(=O)=O [14(b), N-(5-(tert-Butyl)-2-methoxy-3-(methylsulfonamido)phenyl)-3-(2-((3-cyano-5-(2-morpholinoethoxy)phenyl)amino)quinazolin-6-yl)-4-methylbenzamide] | 15.2 nM |
| COc1cc(Nc2ncc3cc(-c4cc(C(=O)Nc5cc(C(C)(C)C)cc(NS(C)(=O)=O)c5OC)ccc4C)ccc3n2)cc(S(=O)(=O)N(C)CCN2CCOCC2)c1 [14(c), N-(5-(tert-Butyl)-2-methoxy-3-(methylsulfonamido)phenyl)-3-(2-((3-methoxy-5-(N-methyl-N-(2-morpholinoethyl)sulfamoyl)phenyl)amino)quinazolin-6-yl)-4-methylbenzamide] | 18.6 nM |
| COc1c(NC(=O)c2ccc(C)c(-c3ccc4nc(Nc5cccc(C(=O)NCCN6CCOCC6)c5)ncc4c3)c2)cc(C(C)(C)C)cc1NS(C)(=O)=O [14(d), N-(5-(tert-Butyl)-2-methoxy-3-(methylsulfonamido)phenyl)-4-methyl-3-(2-((3-((2-morpholinoethyl)carbamoyl)phenyl)amino)quinazolin-6-yl)benzamide] | 8.3 nM |
| COc1cc(Nc2ncc3cc(-c4cc(C(=O)Nc5cc(C(C)(C)C)cc(NS(C)(=O)=O)c5OC)ccc4C)ccc3n2)cc(S(=O)(=O)N(C)CCCN2CCOCC2)c1 [14(e), N-(5-(tert-Butyl)-2-methoxy-3-(methylsulfonamido)phenyl)-3-(2-((3-methoxy-5-(N-methyl-N-(3-morpholinopropyl)sulfamoyl)phenyl)amino)quinazolin-6-yl)-4-methylbenzamide] | 20.6 nM |
| COCCOCCOCCOc1cc(C#N)cc(Nc2ncc3cc(-c4cc(C(=O)Nc5cc(C(C)(C)C)cc(NS(C)(=O)=O)c5OC)ccc4C)ccc3n2)c1 [14(f), N-(5-(tert-Butyl)-2-methoxy-3-(methylsulfonamido)phenyl)-3-(2-((3-cyano-5-(2-(2-(2-methoxyethoxy)ethoxy)ethoxy)phenyl)amino)quinazolin-6-yl)-4-methylbenzamide] | 10.4 nM |
| COc1c(NC(=O)c2ccc(C)c(-c3ccc4nc(Nc5cccc(P(C)(C)=O)c5)ncc4c3)c2)cc(C(C)(C)C)cc1NS(C)(=O)=O [14(h), N-(5-(tert-Butyl)-2-methoxy-3-(methylsulfonamido)phenyl)-3-(2-((3-(dimethylphosphoryl)phenyl)amino)quinazolin-6-yl)-4-methylbenzamide] | 9.4 nM |
| COc1c(NC(=O)c2ccc(C)c(-c3ccc4nc(Nc5ccc(OS(C)(=O)=O)cc5)ncc4c3)c2)cc(C(C)(C)C)cc1NS(C)(=O)=O [14(j), 4-((6-(5-((5-(tert-Butyl)-2-methoxy-3-(methylsulfonamido)phenyl)carbamoyl)-2-methylphenyl)quinazolin-2-yl)amino)phenyl methanesulfonate] | 9.1 nM |
| C#Cc1cc(Nc2ncc3cc(-c4cc(C(=O)Nc5cc(C(C)(C)C)cc(NS(C)(=O)=O)c5OC)ccc4C)ccc3n2)cc(OCCOCCOCCOC)c1 [14(k), N-(5-(tert-Butyl)-2-methoxy-3-(methylsulfonamido)phenyl)-3-(2-((3-ethynyl-5-(2-(2-(2-methoxyethoxy)ethoxy)ethoxy)phenyl)amino)quinazolin-6-yl)-4-methylbenzamide] | 16.7 nM |
